Results reported in US20040197855A1, “Test system for determining gene toxicities” (priority 2001, published 2004).

Experiments:
Salmonella typhimurium = conditions: cited from earlier work
rats = conditions: cited from earlier work
mice = conditions: cited from earlier work
[1] = tested on: yeast and mammalian cells; conditions: cited from earlier work
GalER-VP = experiment: Estradiol-inducible expression of I-SceI meganuclease in KMV cells; type: cell-based, human; conditions: KMV clones with genomic pGC-Sce; Gal4 recognition sequence promoter
Excerpt: In order to achieve controlled meganuclease expression because of the antiproliferative effect of DSBs, the extremely reliable, β-estradiol-inducible expression system was selected according to a preferred embodiment of the invention (Braselmann, S. et al. (1993) Proc. Natl. Acad. Sci. USA 90: 1657-1661; Dudenhöffer, C. (1999) Oncogene 18: 5773-5784). The expression system couples the so-called Gal4ER transcription factor to an expression cassette controlled by a Gal4ER-responsive promoter (compare FIG. 2). Gal4ER represents a fusion protein of the DNA binding domain of the Gal4 transcription factor with the strong, viral VP16 transactivator domain and a β-estradiol binding domain of the human β-estradiol receptor, making Gal4ER functionally inducible as transcription factor by β-estradiol. This principle of conditional expression permits an inducible increase in protein expression by at least one order of magnitude. […] Inducible I-SceI expression was detected in Western blot experiments. […]

Compound | result in the Ames assay (Salmonella typhimurium) | tumours in rats (rats) | tumours in mice (mice) | recombination events leading to deletions [1] | lowest concentration for complete promoter induction (GalER-VP)
Cc1ccccc1N [o-toluidine] | negative | cause tumours | cause tumours | triggered | 
C[C@]12CC[C@@H]3c4ccc(O)cc4CC[C@H]3[C@@H]1CC[C@@H]2O [β-estradiol] |  |  |  |  | 50 nM
